Structures are written as SMILES. A value given as a limit tells only on which side of the number the result lay.

For this test, the system named is CD34^+CD38^− cells. The experiment in a line: Expansion of CD34+CD38− cells from human cord blood-derived CD34+ cells (Example 2). Type of test: cell-based. The following applies: Homo sapiens, 168 h, 1 μg/mL compound, 50 ng/mL SCF, StemSpan SFEM, 7 days; based on number of CD34+CD38− cells in the absence of compound; read-out: Expansion efficiency. The method, then: The human cord blood-derived CD34^+ cells collected or purchased in Example 1 were plated on a 24-well plate (TPP) (10000 cells/1/mL/well). As the culture medium, StemSpan SFEM (Stemcell Technologies) containing 50 ng/mL SCF (Peprotech) was used, and Compounds No. 1 to 133 dissolved in dimethyl sulfoxide were added in an amount of 0.1% (v/v) to a final concentration of 1 μg/mL.
After the cells were incubated in liquid culture at 37° C. for 7 days in a CO2 incubator (5% CO2), the number of viable cells was counted by trypan blue assay. The number of CD34^+CD38^− cells was calculated as follows. After the incubation, the cells in the liquid culture was stained with a CD34 antibody (APC, Becton, Dickinson and Company) and a CD38 antibody (PE, Becton, Dickinson and Company), then washed with PBS(−) containing 2% (v/v) FBS and stained with propidium iodide (Sigma-Aldrich Japan) added to a final concentration of 5 μg/mL. The stained cells were analyzed with a flow cytometer JSAN (Bay Bioscience) to determined the proportion of CD34^+CD38^− cells, which was multiplied by the number of viable cells to calculate the number of CD34^+CD38^− cells.
The expansion efficiencies in the presence of 1 μg/mL of compounds based on the number of CD34^+CD38^− cells in the absence of them are shown in Tables 2 and 3 on a scale of A for expansion efficiencies of 10 or greater, B for expansion efficiencies of at least 5 and less than 10, and C for expansion efficiencies of at least 3 and less than 5.
As for `COc1ccc(-c2scc(/C(C)=N/NC(=O)c3ccc(C(=O)NCc4cn(C)cn4)s3)c2O)cc1` [compound 133], the fold induction at 1 µg/mL was at least 10.

On to `C/C(=N\NC(=O)c1ccc(C(=O)NCc2cncn2C)s1)c1csc(-c2ccc(C(F)(F)F)cc2)c1O` [compound 52], for which the fold induction at 1 µg/mL is 5 to 10.

Turning to `C/C(=N\NC(=O)c1ccc(C(=O)NCCN2CCOCC2)s1)c1csc(-c2ccc(Br)cc2)c1O` [compound 34], the fold induction at 1 µg/mL is 3 to 5.

On to `C/C(=N\NC(=O)c1ccc(C(=O)N(C(C)C)C(C)C)s1)c1csc(-c2ccc(Cl)c(Cl)c2)c1O` [compound 28], for which the fold induction at 1 µg/mL is at least 10.

`C/C(=N\NC(=O)c1ccc(C(=O)NCc2cc(Cl)no2)s1)c1csc(-c2ccc(Cl)c(Cl)c2)c1O` [compound 47]: the fold induction at 1 µg/mL is 5 to 10.

As for `C/C(=N\NC(=O)c1ccc(C(=O)NC(C)c2ccc(C(N)=O)cc2)s1)c1csc(-c2ccc(Cl)cc2)c1O` (centres unmarked) [compound 117], the fold induction at 1 µg/mL was at least 10.

As to `C/C(=N\NC(=O)c1ccc(C(=O)NCCO)s1)c1csc(-c2ccc(Cl)cc2)c1O` [compound 10], the fold induction at 1 µg/mL was at least 10.

As for `C/C(=N\NC(=O)c1ccc(C(=O)N(C)Cc2ccccn2)s1)c1csc(-c2ccc(Cl)c(Cl)c2)c1O` [compound 80], the fold induction at 1 µg/mL fell in the range of 3 to 5.

On to `C/C(=N\NC(=O)c1ccc(C(=O)NCc2ccno2)s1)c1csc(-c2ccc(C(F)(F)F)cc2)c1O` [compound 48], for which the fold induction at 1 µg/mL lay in the range of 5 to 10.

`CCCN(CC)C(=O)c1ccc(C(=O)N/N=C(\C)c2csc(-c3ccc(Cl)c(Cl)c3)c2O)s1` [compound 85]: the fold induction at 1 µg/mL is 3 to 5.

With `C/C(=N\NC(=O)c1ccc(C(=O)NC(C)c2ccc(C(N)=O)cc2)s1)c1csc(-c2ccc(Br)cc2)c1O` (centres unmarked) [compound 115], the fold induction at 1 µg/mL was at least 10.

Take `C/C(=N\NC(=O)c1ccc(C(=O)NCc2ccc(S(C)(=O)=O)cc2)s1)c1csc(-c2ccc(Cl)c(Cl)c2)c1O` [compound 59]: the fold induction at 1 µg/mL lay within 5 to 10.

Turning to `C/C(=N\NC(=O)c1ccc(C(=O)NCc2cccs2)s1)c1csc(-c2ccc(Cl)cc2)c1` [compound 12], the fold induction at 1 µg/mL is at least 10.

In the case of `C/C(=N\NC(=O)c1ccc(C(=O)NCc2ccccc2)s1)c1csc(-c2ccc(Cl)c(Cl)c2)c1O` [compound 16], the fold induction at 1 µg/mL is at least 10.

Consider `C/C(=N\NC(=O)c1ccc(C(=O)NCc2cc[n+]([O-])cc2)s1)c1csc(-c2ccc(Cl)cc2)c1O` [compound 18], for which the fold induction at 1 µg/mL was at least 10.

In the case of `CNC(=O)c1ccc(CNC(=O)c2ccc(C(=O)N/N=C(\C)c3csc(-c4ccc(OC)cc4)c3O)s2)cc1` [compound 112], the fold induction at 1 µg/mL is at least 10.

`CC(=O)Nc1ccc(C(C)NC(=O)c2ccc(C(=O)N/N=C(\C)c3csc(-c4ccc(OC(F)(F)F)cc4)c3O)s2)cc1` (centres unmarked) [compound 125]: the fold induction at 1 µg/mL was at least 10.

As to `C/C(=N\NC(=O)c1ccc(C(=O)NC2CCCC2)s1)c1csc(-c2ccc(Cl)c(Cl)c2)c1O` [compound 63], the fold induction at 1 µg/mL fell in the range of 3 to 5.

With `C/C(=N\NC(=O)c1ccc(C(=O)NCc2cc(C)on2)s1)c1csc(-c2ccc(OC(F)(F)F)cc2)c1O` [compound 13], the fold induction at 1 µg/mL is at least 10.

Turning to `C/C(=N\NC(=O)c1ccc(C(=O)NCc2cc(C)n(C)n2)s1)c1csc(-c2ccc(C(F)(F)F)cc2)c1O` [compound 56], the fold induction at 1 µg/mL is 5 to 10.

As for `CCN(CC)C(=O)c1ccc(C(=O)N/N=C(\C)c2csc(-c3ccc(Cl)cc3)c2O)s1` [compound 71], the fold induction at 1 µg/mL fell in the range of 5 to 10.

With `C/C(=N\NC(=O)c1ccc(C(=O)NCc2ccccc2C(N)=O)s1)c1csc(-c2ccc(OC(F)(F)F)cc2)c1O` [compound 104], the fold induction at 1 µg/mL is at least 10.

In the case of `C/C(=N\NC(=O)c1ccc(C(=O)NCc2ccno2)s1)c1csc(-c2ccc(Cl)c(Cl)c2)c1O` [compound 40], the fold induction at 1 µg/mL was 5 to 10.

`C/C(=N\NC(=O)c1ccc(C(=O)NCc2ccncc2)s1)c1csc(-c2ccc(Cl)c(Cl)c2)c1O` [compound 5]: the fold induction at 1 µg/mL is at least 10.

In the case of `C/C(=N\NC(=O)c1ccc(C(=O)NCc2ccnnc2)s1)c1csc(-c2ccc(Cl)c(Cl)c2)c1O` [compound 43], the fold induction at 1 µg/mL was at least 10.

As for `CC(=O)Nc1ccc(C(C)NC(=O)c2ccc(C(=O)N/N=C(\C)c3csc(-c4ccc(Cl)c(Cl)c4)c3O)s2)cc1` (centres unmarked) [compound 120], the fold induction at 1 µg/mL was at least 10.

In the case of `COCCNC(=O)c1ccc(C(=O)N/N=C(\C)c2csc(-c3ccc(Cl)c(Cl)c3)c2O)s1` [compound 22], the fold induction at 1 µg/mL was 5 to 10.

Regarding `C/C(=N\NC(=O)c1ccc(C(=O)NCc2ccc(C(N)=O)cc2)s1)c1csc(-c2ccc(C(C)(C)C)cc2)c1O` [compound 86], the fold induction at 1 µg/mL was at least 10.

Regarding `C/C(=N\NC(=O)c1ccc(C(=O)NCc2cn(C)cn2)s1)c1csc(-c2ccc(OC(F)(F)F)cc2)c1O` [compound 82], the fold induction at 1 µg/mL fell in the range of 3 to 5.

Regarding `C/C(=N\NC(=O)c1ccc(C(=O)NCc2cc[n+]([O-])cc2)s1)c1csc(-c2ccc(Cl)c(Cl)c2)c1O` [compound 3], the fold induction at 1 µg/mL is at least 10.

As for `C/C(=N\NC(=O)c1ccc(C(=O)NCc2ccc(C#N)cc2)s1)c1csc(-c2ccc(Cl)c(Cl)c2)c1O` [compound 60], the fold induction at 1 µg/mL was at least 10.

Take `C/C(=N\NC(=O)c1ccc(C(=O)NCc2cn(C)cn2)s1)c1csc(-c2ccc(Br)cc2)c1O` [compound 130]: the fold induction at 1 µg/mL was at least 10.

As for `CC(=O)Nc1ccc(C(C)NC(=O)c2ccc(C(=O)N/N=C(\C)c3csc(-c4ccc(C(C)(C)C)cc4)c3O)s2)cc1` (centres unmarked) [compound 121], the fold induction at 1 µg/mL fell in the range of 5 to 10.

On to `C/C(=N\NC(=O)c1ccc(C(=O)NCc2cscn2)s1)c1csc(-c2ccc(Cl)c(Cl)c2)c1O` [compound 35], for which the fold induction at 1 µg/mL was in the range of 5 to 10.

As for `C/C(=N\NC(=O)c1ccc(C(=O)NC(C)C)s1)c1csc(-c2cccc(Cl)c2)c1O` [compound 78], the fold induction at 1 µg/mL fell in the range of 5 to 10.

As for `CC(=O)Nc1ccc(C(C)NC(=O)c2ccc(C(=O)N/N=C(\C)c3csc(-c4ccc(C(F)(F)F)cc4)c3O)s2)cc1` (centres unmarked) [compound 123], the fold induction at 1 µg/mL was at least 10.

As to `C/C(=N\NC(=O)c1ccc(C(=O)NCc2ncccn2)s1)c1csc(-c2ccc(Cl)c(Cl)c2)c1O` [compound 36], the fold induction at 1 µg/mL was at least 10.

In the case of `C/C(=N\NC(=O)c1ccc(C(=O)NCc2ccccn2)s1)c1csc(-c2ccc(Cl)c(Cl)c2)c1O` [compound 72], the fold induction at 1 µg/mL is 5 to 10.

Regarding `CCCNC(=O)c1ccc(C(=O)N/N=C(\C)c2csc(-c3ccc(Cl)c(Cl)c3)c2O)s1` [compound 62], the fold induction at 1 µg/mL was in the range of 3 to 5.

On to `CNC(=O)c1ccc(CNC(=O)c2ccc(C(=O)N/N=C(\C)c3csc(-c4ccc(Br)cc4)c3O)s2)cc1` [compound 108], for which the fold induction at 1 µg/mL is at least 10.

As for `C/C(=N\NC(=O)c1ccc(C(=O)NCc2ccncn2)s1)c1csc(-c2ccc(Cl)c(Cl)c2)c1O` [compound 84], the fold induction at 1 µg/mL was 5 to 10.

For the compound `CCN(C)C(=O)c1ccc(C(=O)N/N=C(\C)c2csc(-c3ccc(Cl)c(Cl)c3)c2O)s1` [compound 81], the fold induction at 1 µg/mL is 3 to 5.

Regarding `COc1cc(CNC(=O)c2ccc(C(=O)N/N=C(\C)c3csc(-c4ccc(Cl)c(Cl)c4)c3O)s2)on1` [compound 7], the fold induction at 1 µg/mL was at least 10.

In the case of `C/C(=N\NC(=O)c1ccc(C(=O)NC2CC2)s1)c1csc(-c2ccc(Cl)c(Cl)c2)c1` [compound 21], the fold induction at 1 µg/mL is at least 10.

The values are drawn from patent US9527828B2, “Method for expanding hematopoietic stem cells using heterocyclic compound” (Nissan Chemical Industries, Ltd., priority 2007, dated 2016).
